Source: US10246420B2, “Pyrazole derivatives” (BAYER CROPSCIENCE AKTIENGESELLSCHAFT, priority 2014, dated 2019)

Test system: not listed separately
Assay: Log P by HPLC on reversed phase columns (EEC directive 79/831 Annex V.A8)
Assay type: physicochemical
Conditions: not given
Method: Measurement of Log P values was performed according to EEC directive 79/831 Annex V.A8 by HPLC (High Performance Liquid Chromatography) on reversed phase columns with the following methods:
[^a] Log P value is determined by measurement of LC-UV, in an acidic range, with 0.1% formic acid in water and acetonitrile as eluent (linear gradient from 10% acetonitrile to 95% acetonitrile).
[^b] Log P value is determined by measurement of LC-UV, in a neutral range, with 0.001 molar ammonium acetate solution in water and acetonitrile as eluent (linear gradient from 10% acetonitrile to 95% acetonitrile).
[^c] Log P value is determined by measurement of LC-UV, in an acidic range, with 0.1% phosphoric acid and acetonitrile as eluent (linear gradient from 10% acetonitrile to 95% acetonitrile).
Calibration was done with straight-chain alkan-2-ones (with 3 to 16 carbon atoms) with known Log P values (measurement of Log P values using retention times with linear interpolation between successive alkanones). Lambda-max-values were determined using UV-spectra from 200 nm to 400 nm and the peak values of the chromatographic signals.

Row | SMILES | LogP [a] | LogP [b] | LogP [c]
1 | C#CCOc1cc(F)cc(F)c1Nc1c(-c2ccc(Cl)nc2)c(C)nn1C [Example I-25] | 2.69^[a]; | 2.63^[b] | –
2 | C=CCOc1cc(F)c(Nc2c(-c3cc(OC)cc(OC)c3)c(C)nn2C)c(F)c1 [Example I-11] | 3.11^[a] | – | –
3 | C#CCOc1cccc(Cl)c1Nc1c(-c2ccc(Cl)cc2Cl)c(C)nn1C [Example I-66] | 3.99^[a] | – | –
4 | C=CCOc1ccc(F)cc1Nc1c(-c2ccc(F)cc2Cl)c(C)nn1C [Example I-50] | 4.01^[a] | – | –
5 | C#CCOc1ccc(Nc2c(-c3ccc(Cl)cc3Cl)c(C)nn2C)c(Cl)c1 [Example I-40] | 4.13^[a]; | 4.06^[b]; | 4.00^[c]
6 | C#CCOc1ccc(Nc2c(-c3ccc(F)cc3Cl)c(C)nn2C)c(Cl)c1 [Example I-32] | 3.65^[a]; | 3.59^[b] | –
7 | C#CCOc1ccc(F)cc1N=C=S [Z-ii-17] | 3.62^[a] | – | –
8 | C=CCOc1ccc(F)cc1Nc1c(-c2ccc(Cl)cc2Cl)c(C)nn1C [Example I-56] | 4.49^[a] | – | –
9 | C=CCOc1cc(C)ccc1Nc1c(-c2ccc(F)cc2Br)c(C)nn1C [Example I-46] | 4.39^[a] | – | –
10 | C=CCOc1cc(F)c(N=C=S)cc1F [Z-ii-10] | 4.24^[a] | – | –
11 | C#CCOc1cc(F)cc(F)c1Nc1c(-c2c(F)cc(F)cc2F)c(C)nn1C [Example I-59] | 3.10^[a] | – | –
12 | C=CCOc1cccc(Cl)c1Nc1c(-c2ccc(F)cc2Cl)c(C)nn1C [Example I-65] | 4.06^[a] | – | –
13 | C=CCOc1ccc(-c2c(C)nn(C)c2Nc2c(F)cc(OCC=C)cc2F)c(F)c1 [Example I-23] | 3.62^[a] | – | –
14 | C#CCOc1ccc(N=C=S)cc1F [Z-ii-11] | 3.47^[a] | – | –
15 | C=CCOc1cc(F)c(Nc2c(-c3ccc(F)cc3F)c(C)nn2C)c(F)c1 [Example I-15] | 3.33^[a] | – | –
16 | C#CCOc1ccccc1Nc1c(-c2ccc(F)cc2Br)c(C)nn1C [Example I-43] | 3.60^[a] | – | –
17 | C#CCOc1cc(F)c(Nc2c(-c3ccc(Cl)cc3Cl)c(C)nn2C)cc1F [Example I-39] | 3.70^[a]; | 3.62^[b]; | 3.60^[c]
18 | C#CCOc1cc(F)c(Nc2c(-c3cc(OC)cc(OC)c3)c(C)nn2C)c(F)c1 [Example I-10] | 2.73^[a] | – | –
19 | C=CCOc1cc(C)ccc1Nc1c(-c2ccc(Cl)cc2Cl)c(C)nn1C [Example I-57] | 4.85^[a] | – | –
20 | C#CCOc1ccc(F)c(Nc2c(-c3ccc(F)cc3Cl)c(C)nn2C)c1 [Example I-38] | 3.33^[a]; | 3.27^[b]; | 3.20^[c]
21 | C=CCOc1ccc(Nc2c(-c3ccc(F)cc3Cl)c(C)nn2C)c(Cl)c1 [Example I-41] | 4.23^[a]; | 4.20^[b] | –
22 | C=CCOc1ccccc1Nc1c(-c2ccc(Cl)cc2Cl)c(C)nn1C [Example I-54] | 4.49^[a] | – | –
23 | C=CCOc1ccc(F)cc1N=C=S [Z-ii-16] | 4.24^[a] | – | –
24 | C#CCOc1cc(C)ccc1Nc1c(-c2ccc(F)cc2Br)c(C)nn1C [Example I-47] | 3.87^[a] | – | –
25 | C#CCOc1cc(F)c(Nc2c(-c3ccc(F)cc3F)c(C)nn2C)c(F)c1 [Example I-14] | 2.90^[a] | – | –
26 | C#CCOc1cc(F)cc(F)c1Nc1c(-c2ccc(OC)cc2F)c(C)nn1C [Example I-19] | 2.86^[a] | – | –
27 | C#CCOc1cc(F)cc(F)c1Nc1c(-c2ccc(F)cc2F)c(C)nn1C [Example I-16] | 3.07^[a] | – | –
28 | C=CCOc1ccc(N=C=S)cc1 [Z-ii-05] | 4.06 | 4.09 | –

Row | SMILES | LogP [a] | LogP [b] | LogP [c]
29 | C=CCOc1ccc(F)c(Nc2c(-c3ccc(F)cc3Cl)c(C)nn2C)c1 [Example I-37] | 3.78^[a]; | 3.73^[b]; | 3.70^[c]
30 | C#CCOc1ccc(F)cc1Nc1c(-c2ccc(F)cc2Br)c(C)nn1C [Example I-45] | 3.64^[a] | – | –
31 | C#CCOc1ccccc1Nc1c(-c2ccc(F)cc2Cl)c(C)nn1C [Example I-49] | 3.53^[a] | – | –
32 | C#CCOc1cc(F)cc(F)c1Nc1c(-c2ccc(F)cc2Br)c(C)nn1C [Example I-42] | 3.33^[a]; | 3.32^[b] | –
33 | C=CCOc1cc(F)c(N=C=S)c(F)c1 [Z-ii-01] | 4.54^[a] | – | –
34 | C=CCOc1cc(F)c(Nc2c(-c3ccc(F)cc3Cl)c(C)nn2C)c(F)c1 [Example I-02] | 3.54^[a]; | – | 3.40^[c]
35 | C#CCOc1cc(F)c(N=C=S)cc1F [Z-ii-09] | 3.64^[a] | – | –
36 | C#CCOc1ccc(F)c(N=C=S)c1 [Z-ii-08] | 3.62^[a] | – | –
37 | C#CCOc1cc(F)c(Nc2c(-c3ccc(Cl)nc3)c(C)nn2C)c(F)c1 [Example I-20] | 2.56^[a]; | 2.54^[b] | –
38 | C#CCOc1cc(F)c(Nc2c(-c3ccccc3F)c(C)nn2C)c(F)c1 [Example I-06] | 2.78^[a] | – | –
39 | C#CCOc1cccc(Cl)c1N=C=S [Z-ii-14] | 3.86^[a] | – | –
40 | C=CCOc1ccccc1Nc1c(-c2ccc(F)cc2Cl)c(C)nn1C [Example I-48] | 3.99^[a] | – | –
41 | C#CCOc1cc(F)cc(F)c1Nc1c(-c2c(F)cc(OC)cc2F)c(C)nn1C [Example I-61] | 3.00^[a] | – | –
42 | C#CCOc1ccccc1Nc1c(-c2ccc(Cl)cc2Cl)c(C)nn1C [Example I-55] | 3.96^[a] | – | –
43 | C#CCOc1cc(F)cc(F)c1Nc1c(-c2ccc(Cl)cc2Cl)c(C)nn1C [Example I-05] | 3.69^[a] | – | –
44 | C#CCOc1cccc(Cl)c1Nc1c(-c2ccc(F)cc2F)c(C)nn1C [Example I-67] | 3.26^[a] | – | –
45 | C#CCOc1ccc(F)cc1Nc1c(-c2ccc(F)cc2Cl)c(C)nn1C [Example I-51] | 3.58^[a] | – | –
46 | C#CCOc1cccc(Cl)c1Nc1c(-c2ccc(F)cc2Cl)c(C)nn1C [Example I-64] | 3.56^[a] | – | –
47 | C#CCOc1cc(F)c(-c2c(C)nn(C)c2Nc2c(F)cc(F)cc2OCC#C)c(F)c1 [Example I-63] | 2.99^[a] | – | –
48 | C#CCOc1ccc(Nc2c(-c3ccc(F)cc3Cl)c(C)nn2C)cc1 [Example I-31] | 3.09^[a]; | 3.06^[b] | –
49 | C=CCOc1cc(F)c(Nc2c(-c3ccc(Cl)cc3Cl)c(C)nn2C)c(F)c1 [Example I-08] | 3.97^[a] | – | –
50 | C#CCOc1cc(F)cc(F)c1Nc1c(-c2cc(OC)cc(OC)c2)c(C)nn1C [Example I-12] | 2.85^[a] | – | –
51 | C#CCOc1cc(F)c(N=C=S)c(F)c1 [Z-ii-02] | 3.86^[a] | – | –
52 | C#CCOc1ccc(-c2c(C)nn(C)c2Nc2c(F)cc(OCC=C)cc2F)c(F)c1 [Example I-28] | 3.13^[a] | – | –
53 | C=CCOc1cc(F)c(Nc2c(-c3ccccc3F)c(C)nn2C)c(F)c1 [Example I-13] | 3.22^[a] | – | –
54 | C=CCOc1cc(F)c(Nc2c(-c3ccc(OC)cc3F)c(C)nn2C)c(F)c1 [Example I-18] | 3.11^[a] | – | –
55 | C=CCOc1cc(F)c(N(C)c2c(-c3ccc(F)cc3Cl)c(C)nn2C)c(F)c1 [Example I-04] | 4.40^[a] | – | –

Same assay, conditions: LC-UV, acidic range, 0.1% formic acid in water and acetonitrile as eluent; read-out: LogP [a]

Row | SMILES | chromatographic logP
56 | C=CCOc1ccc(CC(C)=O)c(F)c1 [Z-iv-01, 1-[4-(allyloxy)-2-fluorophenyl]acetone] | 2.6
57 | COc1ccc(CC(C)=O)c(F)c1 [Z-iv-02, 1-(2-fluoro-4-methoxyphenyl)acetone] | 1.95
58 | C#CCOc1cc(F)cc(F)c1N=C=S [Z-ii-03, 3,5-difluoro-2-isothiocyanatophenyl prop-2-yn-1-yl ether] | 3.68

Same assay, conditions: pH 2.3; read-out: log P (pH 2.3)

Row | SMILES | chromatographic logP
59 | C#CCOc1cc(F)cc(F)c1N=C=S [Z-ii-03, 3,5-difluoro-2-isothiocyanatophenyl prop-2-yn-1-yl ether] | 3.72

Test system: Alternaria solani
Assay: Biological Example C1 (comparative): in vivo preventive test on Alternaria solani (tomatoes)
Conditions: rate of application 50 ppm, evaluated 3 days after inoculation
Method: (§1) To produce a suitable preparation of active compound, 1 part by weight of active compound is mixed with the stated amounts of solvent and emulsifier, and the concentrate is diluted with water to the desired concentration.
(§2) To test for preventive activity, young plants are sprayed with the preparation of active compound at the stated rate of application. After the spray coating has dried on, the plants are inoculated with an aqueous spore suspension of Alternaria solani. The plants are then placed in an incubation cabinet at approximately 20° C. and a relative atmospheric humidity of 100%.
The test is evaluated 3 days after the inoculation. 0% means an efficacy which corresponds to that of the untreated control while an efficacy of 100% means that no disease is observed.

Row | SMILES | Efficacy in %
60 | CCCOc1cc(F)cc(F)c1Nc1c(-c2ccc(F)cc2Cl)c(C)nn1C [drawing 18, reference compound] | 40%

Test system: Phakopsora pachyrhizi
Assay: Biological Example C2 (comparative): in vivo preventive test on Phakopsora pachyrhizi (soybeans)
Conditions: rate of application 250 ppm, evaluated 7 days after inoculation
Method: as §1
To test for preventive activity, young plants are sprayed with the preparation of active compound at the stated rate of application. After the spray coating has dried on, the plants are inoculated with an aqueous spore suspension of the causal agent of soybean rust (Phakopsora pachyrhizi) and stay for 24 h without light in an incubation cabinet at approximately 24° C. and a relative atmospheric humidity of 95%. The plants remain in the incubation cabinet at approximately 24° C. and a relative atmospheric humidity of approximately 80% and a day/night interval of 12 h.
(§3) The test is evaluated 7 days after the inoculation. 0% means an efficacy which corresponds to that of the untreated control, while an efficacy of 100% means that no disease is observed.

Row | SMILES | Efficacy in %
61 | CCCOc1cc(F)cc(F)c1Nc1c(-c2ccc(F)cc2Cl)c(C)nn1C [drawing 20, reference compound] | 53%

Test system: Sphaerotheca fuliginea
Assay: Biological Example C3 (comparative): in vivo preventive test on Sphaerotheca fuliginea (cucumbers)
Conditions: rate of application 50 ppm, evaluated 7 days after inoculation
Method: as §1
as §2, with “Sphaerotheca fuliginea.” for “Alternaria solani.”, “a greenhouse” for “an incubation cabinet”, “23°” for “20°”, “approximately 70%.” for “100%.”
as §3

Row | SMILES | Efficacy in %
62 | CCCOc1cc(F)cc(F)c1Nc1c(-c2ccc(F)cc2Cl)c(C)nn1C [drawing 22, reference compound] | 10%
